The values below come from ChEMBL document CHEMBL3751755, “Developing steroidal aromatase inhibitors-an effective armament to win the battle against breast cancer” (Eur J Med Chem, 2015).

The target of one data set is T1, Aromatase (Homo sapiens, UniProt P11511).
T1 sequence (P11511 whole entry): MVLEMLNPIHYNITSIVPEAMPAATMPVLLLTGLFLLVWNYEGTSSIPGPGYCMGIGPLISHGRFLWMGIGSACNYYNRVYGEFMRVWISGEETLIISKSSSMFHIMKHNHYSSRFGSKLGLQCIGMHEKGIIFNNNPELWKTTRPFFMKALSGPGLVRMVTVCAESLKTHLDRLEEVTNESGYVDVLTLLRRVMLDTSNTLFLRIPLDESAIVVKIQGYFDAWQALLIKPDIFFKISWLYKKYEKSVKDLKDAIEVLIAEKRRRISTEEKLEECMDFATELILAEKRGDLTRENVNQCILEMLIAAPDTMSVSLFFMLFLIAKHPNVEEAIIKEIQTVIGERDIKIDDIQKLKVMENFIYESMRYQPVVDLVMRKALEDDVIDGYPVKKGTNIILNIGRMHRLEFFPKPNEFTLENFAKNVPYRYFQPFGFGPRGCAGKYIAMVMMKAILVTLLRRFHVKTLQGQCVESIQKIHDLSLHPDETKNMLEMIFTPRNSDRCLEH
The data set can be described thus: Inhibition of human aromatase extracted from placental microsomes using [1beta-3H]androstenedione as substrate after 20 mins by radiometric assay.
Conditions: not given
The compound `CC1=C[C@@]2(C)C(=CC1=O)[C@@H](Br)C[C@@H]1[C@@H]2CC[C@]2(C)C(=O)CC[C@@H]12` gave an IC50 of 0.71 µM.

For the compound `CC1=C[C@@]2(C)C(=CC1=O)CC[C@@H]1[C@@H]2CC[C@]2(C)C(=O)CC[C@@H]12`, the IC50 was 0.58 µM.

Regarding `C[C@]12C=C(CCCc3ccccc3)C(=O)C=C1CC[C@@H]1[C@@H]2CC[C@]2(C)C(=O)CC[C@@H]12`, the IC50 turned out to be 0.14 µM.

The target of a further data set is T1, Aromatase. In words: Competitive inhibition of aromatase (unknown origin).
Conditions: not given
Turning to `C[C@]12CC[C@H]3[C@@H](CCC4=CC(=O)CC[C@@]43CN=[N+]=[N-])[C@@H]1CCC2=O`, the Ki amounted to 0.005 µM.

Consider `C[C@]12CC[C@H]3[C@@H](CC=C4[C@H]5CSC[C@]43CCC5=O)[C@@H]1CCC2=O`, for which the Ki is 10 µM.

The compound `C[C@]1(CC#N)CC[C@H]2[C@@H](CCC3=CC(=O)CC[C@@]32C)[C@@H]1CC#N` showed a Ki of 10 µM.

For the compound `C=CC1OC2(O)CC[C@]13C(=CC[C@@H]1[C@@H]3CC[C@]3(C)C(=O)CC[C@@H]13)C2` (stereo not given in full), the Ki is 10 µM.

With `C[C@]12CC[C@H]3[C@@H](CCC4=CC(=O)CC[C@@]43C(=O)C(F)(F)F)[C@@H]1CCC2=O`, the IC50 stood at 26 µM.

In turn, `C[C@]12CCC3C(C[C@H]4COC[C@@]35CCC(=O)C=C45)C1CCC2=O` (stereo not given in full) yielded a Ki of 10 µM.

`C[C@]12CC[C@H]3[C@@H](CCC4=CC(=O)[C@H]5CC[C@]43C5)[C@@H]1CCC2=O` yielded a Ki of 10 µM.

As for `CSC[C@]12CCC(=O)C=C1CC[C@@H]1[C@@H]2CC[C@]2(C)C(=O)CC[C@@H]12`, the Ki was found to be 0.001 µM.

For a further data set, the target named is T1, Aromatase.
Conditions: not given
On to `CC1=C[C@@]2(C)C(=CC1=O)[C@@H](Br)C[C@@H]1[C@@H]2CC[C@]2(C)C(=O)CC[C@@H]12`, for which the Ki worked out at 0.081 µM.

As for `CC1=C[C@@]2(C)C(=CC1=O)CC[C@@H]1[C@@H]2CC[C@]2(C)C(=O)CC[C@@H]12`, the Ki turned out to be 0.046 µM.

On to `C[C@]12C=C(CCCc3ccccc3)C(=O)C=C1CC[C@@H]1[C@@H]2CC[C@]2(C)C(=O)CC[C@@H]12`, for which the Ki turned out to be 0.0161 µM.

Another data set addresses T1, Aromatase. In words: Inhibition of aromatase (unknown origin). The arrangement: inhibition (INH): concentration or dose not given beside the values.
Conditions: not given
On to `COC(=O)C1=C(C)NC(C)=C(C(=O)OC)C1C[C@H]1C[C@@H]2[C@H](CC[C@]3(C)C(=O)CC[C@@H]23)[C@@]2(C)C=CC(=O)C=C12`, for which inhibition was half-maximal at 10 µM (IC50).

In turn, `C[C@]12CCC(=O)C(O)=C1C(=O)C[C@@H]1[C@@H]2CC[C@]2(C)C(=O)CC[C@@H]12` came in with a Ki of 0.042 µM.

The compound `CC1(C)C[C@@]2(C)C(=CC1=O)C(=O)C[C@@H]1[C@@H]2CC[C@]2(C)C(=O)CC[C@@H]12` displayed a Ki of 0.025 µM.

In the case of `CC1(C)C[C@@]2(C)C(=C(O)C1=O)C(=O)C[C@@H]1[C@@H]2CC[C@]2(C)C(=O)CC[C@@H]12`, the Ki was determined as 0.04 µM.

Compound `C[C@]12CC[C@H]3[C@@H](CCC4=CC(=O)CC[C@@]43[C@@H]3CN3)[C@@H]1CC[C@@H]2O` returned a Ki of 0.0034 µM.

Still in this data set, the particulars now being: human.
`CC(=O)O[C@@H]1[C@@H]2CC(=O)C[C@@H]3CC[C@@H]4[C@H](CC[C@]5(C)C(=O)CC[C@@H]45)[C@@]312`: the “inhibition (INH)” value is reported as 40%.

`C[C@]12CC[C@H]3[C@@H](CC[C@H]4C[C@@]5(O)C[C@H]6[C@H](O5)[C@]436)[C@@H]1CCC2=O`: the “inhibition (INH)” value was found to be 40%.

`C[C@]12CC[C@H]3[C@@H](CC[C@H]4CC(=O)C[C@H]5[C@@H](O)[C@]435)[C@@H]1CCC2=O`: the “inhibition (INH)” value was 40%.

The target of a further data set is T1, Aromatase. In words: Competitive inhibition of human aromatase extracted from placental microsomes by Dixon plot analysis in presence of [1beta-3H]androstenedione. Conditions: read-out: Ki.
For the compound `CC[C@]12C=CC(=O)C=C1C=C[C@H]1[C@@H]3CCC(=O)[C@@]3(C)CC[C@@H]12`, the Ki is 0.0082 µM.

Take `CC[C@]12CCC(=O)C=C1CC[C@@H]1[C@@H]2CC[C@]2(C)C(=O)CC[C@@H]12`: the Ki came out at 0.0082 µM.

On to `CC[C@]12CCC(=O)C=C1C=C[C@@H]1[C@@H]2CC[C@]2(C)C(=O)CC[C@@H]12`, for which the Ki is 0.0082 µM.

Turning to `CC[C@]12C=CC(=O)C=C1CC[C@H]1[C@@H]3CCC(=O)[C@@]3(C)CC[C@@H]12`, the Ki was 0.0082 µM.

For `C[C@]12CC[C@H]3[C@@H](C(=O)C=C4CCCC[C@@]43CO)[C@@H]1CCC2=O`, the Ki worked out at 11.1 µM.

As to `C[C@]12CCCCC1=CC(=O)[C@@H]1[C@@H]2CC[C@]2(C)C(=O)CC[C@@H]12`, the Ki was determined as 0.143 µM.

Staying with this data set, now noted: read-out: Ki(app).
On to `CC[C@@H]1C[C@@H]2[C@H](CC[C@]3(C)C(=O)CC[C@@H]23)[C@@]2(C)C=CC(=O)C=C12`, for which the Ki came to 0.0047 µM.

On to `CCCCC[C@@H]1C[C@@H]2[C@H](CC[C@]3(C)C(=O)CC[C@@H]23)[C@@]2(C)C=CC(=O)C=C12`, for which the Ki stood at 0.005 µM.

For `C[C@]12CC[C@H]3[C@@H](C(=O)C=C4CCCC[C@@]43O)[C@@H]1CCC2=O`, the Ki is 1.1 µM.

Take `CC(=O)O[C@]12CCCCC1=CC(=O)[C@H]1[C@@H]3CCC(=O)[C@@]3(C)CC[C@@H]12`: the Ki stood at 1.1 µM.

The next data set deals with T1, Aromatase. In words: Competitive inhibition of human aromatase extracted from placental microsomes by Dixon plot analysis in presence of [1beta-3H]AD. Conditions: read-out: Ki.
For `CO[C@H]1C=C2C(=O)C[C@@H]3[C@H](CC[C@]4(C)C(=O)CC[C@@H]34)[C@@]2(C)CC1`, the Ki came to 0.7 µM.

With `C[C@]12CCC(=O)C=C1C(=O)C[C@@H]1[C@@H]2CC[C@]2(C)C(=O)[C@H](O)C[C@@H]12`, the Ki is 1.18 µM.

Consider `C[C@]12C[C@@H](Br)C(=O)C=C1CC[C@@H]1[C@@H]2CC[C@]2(C)C(=O)CC[C@@H]12`, for which the Ki was determined as 0.045 µM.

On to `C[C@]12C[C@@H](Cl)C(=O)C=C1CC[C@@H]1[C@@H]2CC[C@]2(C)C(=O)CC[C@@H]12`, for which the Ki was determined as 0.045 µM.

As to `C[C@]12C[C@@H](O)C(=O)C=C1CC[C@@H]1[C@@H]2CC[C@]2(C)C(=O)CC[C@@H]12`, the Ki was determined as 0.67 µM.

With `CCO[C@@H]1C[C@@]2(C)C(=CC1=O)CC[C@@H]1[C@@H]2CC[C@]2(C)C(=O)CC[C@@H]12`, the Ki was found to be 0.67 µM.

`CO[C@@H]1C[C@@]2(C)C(=CC1=O)CC[C@@H]1[C@@H]2CC[C@]2(C)C(=O)CC[C@@H]12`: the Ki was 0.67 µM.

Still in this data set, the particulars now being: read-out: Ki(app).
For `C[C@]12CCC(=O)C=C1C(=O)C[C@@H]1[C@@H]2CC[C@]2(C)C(=O)[C@H](Br)C[C@@H]12`, the Ki turned out to be 0.15 µM.

Another data set concerns the target T1, Aromatase. The data set can be described thus: Competitive inhibition of human aromatase extracted from placental microsomes after 10 mins in presence of [1beta-3H]androstenedione.
Conditions: not given
Turning to `C=C[C@@H]1C[C@@H]2[C@H](CC[C@]3(C)C(=O)CC[C@@H]23)[C@@]2(C)CCC(=O)C=C12`, the Ki came out at 0.0051 µM.

As for `C/C=C1\C[C@@H]2[C@H](CC[C@]3(C)C(=O)CC[C@@H]23)[C@@]2(C)CCC(=O)C=C12`, the Ki was 0.0049 µM.

As for `CCCC[C@H]1C[C@@H]2[C@H](CC[C@]3(C)C(=O)CC[C@@H]23)[C@@]2(C)CCC(=O)C=C12`, the Ki is 0.0014 µM.

With `C[C@]12CCC(=O)C=C1[C@@H](Cc1ccccc1)C[C@@H]1[C@@H]2CC[C@]2(C)C(=O)CC[C@@H]12`, the Ki was determined as 0.01 µM.

Take `CC[C@@H]1C[C@@H]2[C@H](CC[C@]3(C)C(=O)CC[C@@H]23)[C@@]2(C)CCC(=O)C=C12`: the Ki was 0.0014 µM.

Consider `C#CC[C@H]1C[C@@H]2[C@H](CC[C@]3(C)C(=O)CC[C@@H]23)[C@@]2(C)CCC(=O)C=C12`, for which the Ki came to 0.037 µM.

On to `CCCC[C@@H]1C[C@@H]2[C@H](CC[C@]3(C)C(=O)CC[C@@H]23)[C@@]2(C)CCC(=O)C=C12`, for which the Ki stood at 0.0014 µM.

For the compound `C[C@H]1C[C@@H]2[C@H](CC[C@]3(C)C(=O)CC[C@@H]23)[C@@]2(C)CCC(=O)C=C12`, the Ki was determined as 0.0014 µM.

For the compound `C[C@@H]1C[C@@H]2[C@H](CC[C@]3(C)C(=O)CC[C@@H]23)[C@@]2(C)CCC(=O)C=C12`, the Ki turned out to be 0.0014 µM.

For the compound `C#CC[C@@H]1C[C@@H]2[C@H](CC[C@]3(C)C(=O)CC[C@@H]23)[C@@]2(C)CCC(=O)C=C12`, the Ki was determined as 0.01 µM.

As a reminder, the IC50 is the concentration at which inhibition is half-maximal.
